Data from US10457710B2, “Antimicrobial peptides, their variants and uses” (priority 2015, dated 2019).
Where a SMILES comes first, the peptide text is derived from it. [ ]: non-standard residue; d: D form.

System: clinical strains of bacteria and yeasts
Experiment: MIC, all clinical bacteria and yeasts tested together
Format: cell-based
Details: bacterial strains other than E. coli
Experimental: Minimum inhibition concetrations (MICs) were determined against Escherichia coli (ATCC 25922), Staphylococcus aureus (ATCC 25923), Klebsiella pneumoniae (ATCC 10031) and Pseudomonas aeruginosa (ATCC 27853). Also clinical strains of E. coli, K. pneumoniae, E. cloacae, P. aeruginosa, Serratia marcescens, Proteus mirabilis, S. pneumoniae, Acinetobacter baumannii, A. johnsonii and S. aureus were used for MICs assays. Additionally, clinical strains of yeast including Candida albicans, C. glabrata, C. parapsilosis and C. quillermondiae were used. The susceptibility of these microorganisms to Chain peptides were determined using micro broth dilution assay. Colonies of the respective microorganism from Muller Hinton (MH) agar plates incubated overnight were suspended in MH broth media and final concentration of microorganism was adjusted to 5.0×10^5 cfu/ml. An aliquot of 10 μl of each Chain peptide, or gentamicin, tetracycline as reference antibiotics were added in differing concentrations along with 90 μl of bacterial suspension to 96 well polypropylene plates and incubated at 37° C. for 20 to 24 hours. Concentrations of Chain peptides and reference antibiotics ranged from 0.125 to 128 μg/ml and the MICs were recorded as the lowest concentration with no visual growth of bacteria. Similarly, antifungal MICs were tested in Potato dextrose broth. […]

CC(C)C[C@@H](NC(=O)[C@H](N)CCCNC(=N)N)C(=O)N[C@H](CCCCN)C(=O)N[C@H](CCCNC(=N)N)C(=O)N[C@H](Cc1c[nH]c2ccccc12)C(=O)N[C@H](CCCNC(=N)N)C(=O)N[C@H](CC(C)C)C(=O)N[C@H](Cc1ccccc1)C(=O)N[C@H](CCCNC(=N)N)C(=O)N[C@H](CCCCN)C(=O)N[C@H](CCCNC(=N)N)C(=O)O [Chain306D] (H-[dR][dL][dK][dR][dW][dR][dL][dF][dR][dK][dR]-OH)
activity for the rest of the bacterial strains: > 32 µg/mL
